Values quoted from earlier work, collected in patent US9616027B2, “Pramipexole sustained release tablet formulation and manufacturing method thereof and use thereof” (SHIJIAZHUANG RAPISTEP PHARMACEUTICAL TECHNOLOGY R&D INC., priority 2013, dated 2017).
Like-named read-outs stand apart in the source and are kept apart here.

Experiments:
[1] = test system: patients with advanced Parkinson's disease; details: with levodopa
[2] = not given; remark: listed apart in the source
[3] = in vivo

## CCCN[C@H]1CCc2nc(N)sc2C1 [Pramipexole, (S)-2-Amino-4,5,6,7-tetrahydro-6-(propylamino) benzothiazole]
[1]; 0.375 mg increased to 4.5 mg, 18 weeks of treatment
  UPDRS score: −11.0
[1]; 18 weeks of treatment
  regulation change of the "off" state: -2.1 h
[1]; 33 weeks of treatment
  UPDRS score: −11.1
pH 2 to pH 7.4 buffer media
  solubility in a pH 2 to pH 7.4 buffer media: higher than 10 mg/ml
water
  Water-solubility: greater than 20 mg/ml
[2]; grinding
  crystal modification (monohydrate) under grinding: does not change under grinding
[2]; solid state
  stability in the solid state: very stable
[2]; solution
  stability of solution to light: light sensitive
[3]
  effect of food intake on absorption: Food intake shall influence absorption
  kinetic characteristics: linear kinetic characteristics
